Here are results for four compounds from US20080312292A1, “Antipruritics” (priority 2002, published 2008).

In data set [1] the target is T1, mouse CB2 receptor (Mus musculus, UniProt P47936).
T1 construct: The membrane fractions of mouse brain and spleen that abundantly express CB1 and CB2 receptor, respectively; from tissue; host or cells: mouse spleen membrane fraction (C57BL/6 J)
In words: Binding inhibitory activity to mouse cannabinoid receptors, spleen membrane fraction. Details: species or system C57BL/6 J mice.

Data set [2] addresses T2, human CB1R (Homo sapiens, UniProt P21554).
T2 construct: expressed in transfected cells; host or cells: CHO cells
In words: cell-based. To be noted: CHO cells expressing human CB1R; read-out: cAMP Inhibition: IC50 CB1.

Data set [3] addresses T3, Human cannabinoid receptor CB1R (Homo sapiens, UniProt P21554).
T3 construct: expressed in transfected cells; host or cells: CHO cells
Kind of data set: Human cannabinoid receptor binding inhibition, [3H]CP55940, CB1R. Particulars: membranes of CB1R-expressing CHO cells, [3H]CP55940 0.5 nM; read-out: Ki CB1 receptor. As for the experimental part:
(§1) The crude membrane fractions as Human cannabinoid receptor were then prepared from the CB1R or CB2R-expressing CHO cells. Receptor binding assay was performed by incubating the membranes with each test compound and 38,000 dpm [^3H]CP55940 (at a final concentration of 0.5 nM: NEN Life Science Products) in the assay buffer (50 mM Tris-HCl; 1 mM EDTA, 3 mM MgCl2, pH 7.4) containing 0.5% bovine serum albumin (BSA) for 2 hr at 25° C. The incubation mixture was filtered through 1% polyethylenimine (PEI)-treated GF/C glass filter and washed with 50 mM Tris-HCl (pH 7.4) containing 0.1% BSA. The radioactivity was then counted with a liquid scintillation counter. […] Ki value of test compound is calculated by obtained IC50 value and Kd value of [^3H]CP55940.

Data set [4] deals with T4, human CB2R (Homo sapiens, UniProt P34972).
T4 construct: expressed in transfected cells; host or cells: CHO cells
In words: Cannabinoid receptor-mediated suppression of forskolin-stimulated cAMP synthesis, CB2R. It is filed as cell-based. Particulars: CHO cells expressing human CB2R.

The target of data set [5] is T5, mouse CB1 receptor (Mus musculus, UniProt P47746).
T5 construct: The membrane fractions of mouse brain and spleen that abundantly express CB1 and CB2 receptor, respectively; from tissue; host or cells: mouse brain membrane fraction (C57BL/6 J)
Kind of data set: Binding inhibitory activity to mouse cannabinoid receptors, brain membrane fraction. More on the design: species or system C57BL/6 J mice.

In data set [6] the target is T6, Human cannabinoid receptor CB2R (Homo sapiens, UniProt P34972).
T6 construct: expressed in transfected cells; host or cells: CHO cells
Kind of data set: Human cannabinoid receptor binding inhibition, [3H]CP55940, CB2R. To be noted: membranes of CB2R-expressing CHO cells, [3H]CP55940 0.5 nM; read-out: Ki CB2 receptor. As for the experimental part: as §1

The subject of data set [7] is compound 48/80-induced pruritus. In words: Inhibitory effect on compound 48/80-induced pruritus in ICR strain mice. To be noted: 100 mg/kg (p.o.), ICR mice, compound 48/80-induced scratching.
Setting [8] is: mouse spleen membrane fraction, read-out: Binding Assay: Ki Spleen (CB2).
The mark [9] stands for this setting: read-out: cAMP Inhibition: IC50 CB2.
Setting [10] is: mouse brain membrane fraction, read-out: Binding Assay: Ki Brain (CB1).

Where two headings read alike, the source gives them in different places. Marks after values point to notes of the source that are not given here.

T2 sequence (P21554 whole entry): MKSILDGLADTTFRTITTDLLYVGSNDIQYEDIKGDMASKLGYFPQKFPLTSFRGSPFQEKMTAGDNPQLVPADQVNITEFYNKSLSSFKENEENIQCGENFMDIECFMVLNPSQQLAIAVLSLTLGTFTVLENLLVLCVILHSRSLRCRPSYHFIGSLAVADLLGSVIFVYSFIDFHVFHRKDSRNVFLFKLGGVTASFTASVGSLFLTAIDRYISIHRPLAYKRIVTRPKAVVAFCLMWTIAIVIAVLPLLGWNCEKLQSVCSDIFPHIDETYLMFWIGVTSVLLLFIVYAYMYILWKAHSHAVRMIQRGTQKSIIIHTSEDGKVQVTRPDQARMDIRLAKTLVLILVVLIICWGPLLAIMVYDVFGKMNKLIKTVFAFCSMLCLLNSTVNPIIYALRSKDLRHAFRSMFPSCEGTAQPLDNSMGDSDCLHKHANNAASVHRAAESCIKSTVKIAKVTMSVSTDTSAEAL
T4 sequence (P34972 whole entry): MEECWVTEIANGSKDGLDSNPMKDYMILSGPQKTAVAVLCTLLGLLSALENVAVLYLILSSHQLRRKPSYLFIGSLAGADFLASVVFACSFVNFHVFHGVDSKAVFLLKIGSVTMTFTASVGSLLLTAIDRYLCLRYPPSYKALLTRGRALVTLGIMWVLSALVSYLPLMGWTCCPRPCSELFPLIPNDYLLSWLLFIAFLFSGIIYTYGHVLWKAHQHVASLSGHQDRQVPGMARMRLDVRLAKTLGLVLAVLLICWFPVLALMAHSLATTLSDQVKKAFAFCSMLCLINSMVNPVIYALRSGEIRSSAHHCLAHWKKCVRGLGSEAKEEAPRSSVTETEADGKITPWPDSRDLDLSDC
T5 sequence (P47746 whole entry): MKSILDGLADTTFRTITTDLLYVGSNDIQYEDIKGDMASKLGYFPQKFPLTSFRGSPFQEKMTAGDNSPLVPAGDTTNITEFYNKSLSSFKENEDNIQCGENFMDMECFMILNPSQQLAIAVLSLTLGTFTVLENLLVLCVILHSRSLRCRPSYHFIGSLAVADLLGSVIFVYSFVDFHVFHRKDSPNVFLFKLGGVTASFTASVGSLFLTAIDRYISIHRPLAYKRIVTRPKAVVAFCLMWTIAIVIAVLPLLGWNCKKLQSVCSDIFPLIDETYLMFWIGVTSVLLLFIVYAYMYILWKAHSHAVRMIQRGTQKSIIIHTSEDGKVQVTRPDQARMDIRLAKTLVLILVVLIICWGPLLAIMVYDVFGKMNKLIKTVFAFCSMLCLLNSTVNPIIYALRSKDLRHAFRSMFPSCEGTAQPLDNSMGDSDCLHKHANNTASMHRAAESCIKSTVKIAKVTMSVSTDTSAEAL
T1 sequence (P47936 whole entry): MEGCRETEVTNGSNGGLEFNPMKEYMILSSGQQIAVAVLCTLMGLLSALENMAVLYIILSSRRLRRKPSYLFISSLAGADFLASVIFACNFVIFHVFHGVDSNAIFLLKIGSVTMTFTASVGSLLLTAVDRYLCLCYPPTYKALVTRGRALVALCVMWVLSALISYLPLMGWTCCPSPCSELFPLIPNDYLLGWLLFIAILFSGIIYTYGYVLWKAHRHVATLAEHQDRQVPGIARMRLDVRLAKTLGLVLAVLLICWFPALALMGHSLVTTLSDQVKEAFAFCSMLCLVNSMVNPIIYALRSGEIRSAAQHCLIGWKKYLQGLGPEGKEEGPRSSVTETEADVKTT
T3 sequence (P21554 whole entry): as the sequence (P21554 whole entry) above
T6 sequence (P34972 whole entry): as the sequence (P34972 whole entry) above

The term Ki denotes a dissociation constant, usually derived from enzyme kinetics or from competition with a known ligand. What is called IC50 is the concentration at which inhibition is half-maximal. `CCCCn1c2c(cc(C(=O)NCc3ccccc3)c1=O)CCCCCC2` [Compound 4-101]: the Ki in data set [1] (setting [8]) turned out to be 0.6 nM; in data set [3], 890 nM; in data set [5] (setting [10]), 35 nM; in data set [6] it was 1.5 nM. Moreover, the IC50 in data set [2] is 60.3 nM; in data set [4] (forskolin-stimulated cAMP synthesis, read-out: CB2 receptor IC50) it was 1.4 nM; in data set [4] (setting [9]), 1.4 nM. Besides, in data set [7], the “Antipruritic Effect (%)” value was 81** %.
Turning to `CCCCn1c2c(cc(C(=O)NC3CCCCC3)c1=O)CCCCCC2` [Compound 10-035], the Ki stood at 0.1 nM in data set [1] (setting [8]) and 12 nM in data set [5] (setting [10]). In addition, the results for the IC50 in data set [2] and in data set [4] (setting [9]) were 29 nM and 0.2 nM, respectively. Also, the “Antipruritic Effect (%)” value in data set [7] is 93** %.
Take `CSC(=S)N1CC2(CCCCC2)CSC1=Nc1ccccc1C(C)C` [Compound I-270]: the inhibition constant Ki amounted to 1.2 nM in data set [1] (setting [8]) and 80 nM in data set [5] (setting [10]). Besides, the IC50 turned out to be 68.7 nM in data set [2] and 7.9 nM in data set [4] (setting [9]). Besides, in data set [7], the “Antipruritic Effect (%)” value is 98** %.
The melting point is the temperature, or range, at which the solid turns liquid. `C=CCSC(=S)N1CC2(CCCCC2)CSC1=Nc1ccccc1OC` [II-86] registered a melting point of 108.5 to 109.5 °C. In data set [1], this compound had an inhibition constant (Ki) of 1.1 nM. For the same compound, the IC50 in data set [2] was 16.8 nM. Moreover, the IC50 in data set [4] (setting [9]) is 1 nM. The inhibition constant Ki in data set [5] is 12 nM. Besides, the “Antipruritic Effect (%)” value in data set [7] is 98** %.
